Nine molecules from US10112941B2, “Tricyclic compounds as anticancer agents” (BRISTOL-MYERS SQUIBB COMPANY, priority 2013, dated 2018) can be followed below.

The structures appear in SMILES notation.

One assay has as its target BRD4 (Homo sapiens, UniProt O60885). The experiment in a line: Time Resolved Fluorescence Resonance Energy Transfer (TR-FRET) binding assay, BRD4. The note with it: one of the FRET assays described; read-out: FRET BRD4 IC50.
Assay [1] has as its system JJN3R multiple myeloma cell line. The experiment in a line: Human tumor xenograft model in mice, JJN3R. The conditions noted are these: QD × 7. It is filed as in vivo. From the text:
All rodents were obtained from Jackson Laboratory. (Bar Harbor, Me.), and maintained in an ammonia-free environment in a defined and pathogen-free colony. All mice were quarantined approximately 1 week prior to their use for tumor propagation and drug efficacy testing. Mice were fed food and water ad libitum. The animal care program of Bristol-Myers Squibb Pharmaceutical Research Institute is fully accredited by the American Association for Accreditation of Laboratory Animal Care (AAALAC). All experiments were performed in accordance with Bristol-Myers Squibb (BMS) animal test methods and guidelines.
Tumor xenografts were grown and maintained subcutaneously (SC) in NSG (NOD scid IL2 receptor gamma chain knockout) mice (Jackson Lab). Tumors were propagated as subcutaneous transplants using tumor fragments obtained from donor mice.
The required numbers of animals needed to detect a meaningful response were pooled at the start of the experiment and each was given bilateral subcutaneous implants of two tumor fragments (˜20 mg) with a 13-gauge trocar. Tumors were allowed to grow to the pre-determined size window (tumors outside the range were excluded) and animals were evenly distributed to various treatment and control groups. There were typically 6-8 mice per treatment and control groups, consisting of 10-12 tumors. Treatment of each animal was based on individual body weight. Treated animals were checked daily for treatment related toxicity/mortality. Each group of animals was weighed before the initiation of treatment (Wt1) and then again following the last treatment dose (Wt2). The difference in body weight (Wt2−Wt1) provides a measure of treatment-related toxicity.
Tumor response was determined by measurement of tumors with a caliper twice a week, until the tumors reached a predetermined “target” size of 0.5 gm or 1 gm depending on the tumor type. Tumor weights (mg) were estimated from the formula: Tumor weight=(length×width^2)÷2
Tumor response criteria are expressed in terms of tumor growth inhibition (% TGI). Tumor growth delay is defined as the difference in time (days) required for the treated tumors (T) to reach a predetermined target size compared to those of the control group (C). For this purpose, the tumor weight of a group is expressed as medium tumor weight (MTW).
[formula] where, • Ct=Median control tumor size at end of treatment • C0=Median control tumor size at treatment initiation • Tt=Median tumor size of treated group at end of treatment • T0=Median tumor size of treated group at treatment initiation
Tumor response was also expressed in terms of tumor growth delay and expressed as log cell kill (LCK value), defined as the difference in time (days) required for the treated tumors (T) to reach a predetermined target size compared to those of the control group (C).
Whenever possible, antitumor activity was determined at a range of dose levels up to the maximum tolerated dose (MTD) which is defined as the dose level immediately […] which excessive toxicity (i.e. more than one death) occurred. When death occurred, the day of death was recorded. Treated mice dying prior to having their tumors reach target size were considered to have died from drug toxicity. No control mice died bearing tumors less than target size. Treatment groups with more than one death caused by drug toxicity were considered to have had excessively toxic treatments and their data were not included in the evaluation of a compound's antitumor efficacy.
For administration of BET inhibitors to rodents, compounds were dissolved in […]/10% TPGS/10% Ethanol. BET inhibitors were typically administered orally on a schedule of QD×7 or QD×10 (5 day-on-2 day-off), although other schedules had also been evaluated and shown to be efficacious

Turning to `Cc1nnn(C)c1-c1cnc2c3ccc(C(C)(O)C4CC4)c(F)c3n([C@H](c3ccccc3F)C3CCOCC3)c2c1` (single isomer, unassigned) [Example 436], the IC50 on BRD4 was under 5 nM. For the same molecule, the figures for the LCK in assay [1] (1 mg/kg) and in assay [1] (4 mg/kg) were 0.6 and 0.9, respectively.

Consider `[2H]C([2H])([2H])c1nnn(C)c1-c1cnc2c3ccc(C(C)(C)O)cc3n(C(c3ccccc3)C3CCC(F)(F)CC3)c2c1` (stereo not drawn) [Example 203, 2-{5-[(4,4-Difluorocyclohexyl)(phenyl)methyl]-3-[4-(^2H3)methyl-1-methyl-1H-1,2,3-triazol-5-yl]-5H-pyrido[3,2-b]indol-7-yl}propan-2-ol], for which the IC50 at BRD4 is under 5 nM. Besides, in assay [1] (1 mg/kg), the “% TGI” value came to 93% and the LCK amounted to 0.7. In assay [1] (4 mg/kg), the “% TGI” value worked out at 105% and the LCK was over 1.4.

Regarding `[2H]C([2H])([2H])c1nnn(C)c1-c1cnc2c3ccc(S(C)(=O)=O)cc3n([C@H](c3ccccc3)C3CCOCC3)c2c1` [Example 263, 5-{7-Methanesulfonyl-5-[(S)-oxan-4-yl(phenyl)methyl]-5H-pyrido[3,2-b]indol-3-yl}-4-(^2H3)methyl-1-methyl-1H-1,2,3-triazole], the half-maximal inhibitory concentration (IC50) on BRD4 is under 5 nM. For the same molecule, the LCK stood at 0.2 in assay [1] (1 mg/kg) and 0.3 in assay [1] (4 mg/kg).

Take `[2H]C([2H])([2H])c1nnn(C)c1-c1cnc2c3cc(F)c(C(C)(C)O)cc3n([C@H](c3ccccc3F)C3CCOCC3)c2c1` [Example 276, 2-{8-Fluoro-5-[(S)-(2-fluorophenyl)(oxan-4-yl)methyl]-3-[4-(^2H3)methyl-1-methyl-1H-1,2,3-triazol-5-yl]-5H-pyrido[3,2-b]indol-7-yl}propan-2-ol]: on BRD4, the IC50 is under 5 nM. Also, the LCK in assay [1] (1 mg/kg) was 0.3; in assay [1] (4 mg/kg), 1.

Regarding `[2H]C([2H])([2H])c1nnn(C)c1-c1cnc2c3ccc([C@@](C)(O)C4CC4)c(F)c3n([C@H](c3ccccc3)C3CCOCC3)c2c1` [Example 433, (1S)-1-cyclopropyl-1-{6-fluoro-3-[4-(^2H3)methyl-1-methyl-1H-1,2,3-triazol-5-yl]-5-[(S)-oxan-4-yl(phenyl)methyl]-5H-pyrido[3,2-b]indol-7-yl}ethan-1-ol], in assay [1] (1 mg/kg), the “% TGI” value was found to be 54% and the LCK came out at 0.5.

Consider `[2H]C([2H])([2H])c1nnn(C)c1-c1cnc2c3ccc([C@](C)(O)C4CC4)c(F)c3n([C@H](c3ccccc3)C3CCOCC3)c2c1` [Example 434, (1R)-1-cyclopropyl-1-{6-fluoro-3-[4-(^2H3)methyl-1-methyl-1H-1,2,3-triazol-5-yl]-5-[(S)-oxan-4-yl(phenyl)methyl]-5H-pyrido[3,2-b]indol-7-yl}ethan-1-ol], for which, in assay [1] (1 mg/kg), the “% TGI” value was 82% and the LCK came to 0.5.

As to `CC(=O)NC(C)(C)c1ccc2c3ncc(-c4c(C)nnn4C)cc3n([C@H](c3ccccc3)C3CCOCC3)c2c1F` [Example 462, N-{2-[3-(Dimethyl-1H-1,2,3-triazol-5-yl)-6-fluoro-5-[(S)-oxan-4-yl(phenyl)methyl]-5H-pyrido[3,2-b]indol-7-yl]propan-2-yl}acetamide], the half-maximal inhibitory concentration (IC50) on BRD4 is under 5 nM.

Take `Cc1nnn(C)c1-c1cnc2c3ccc(C(C)(C)NS(C)(=O)=O)c(F)c3n([C@H](c3ccccc3)C3CCOCC3)c2c1` [Example 463, N-{2-[3-(Dimethyl-1H-1,2,3-triazol-5-yl)-6-fluoro-5-[(S)-oxan-4-yl(phenyl)methyl]-5H-pyrido[3,2-b]indol-7-yl]propan-2-yl}methanesulfonamide]: the IC50 on BRD4 is under 5 nM.

For `COC(=O)NC(C)(C)c1ccc2c3ncc(-c4c(C)nnn4C)cc3n([C@H](c3ccccc3)C3CCOCC3)c2c1F` [Example 464, Methyl N-{2-[3-(dimethyl-1H-1,2,3-triazol-5-yl)-6-fluoro-5-[(S)-oxan-4-yl(phenyl)methyl]-5H-pyrido[3,2-b]indol-7-yl]propan-2-yl}carbamate], the IC50 on BRD4 was under 5 nM.
